Experimental data reported in patent publication US20230374575A1, “METHOD FOR VIRUS DETECTION” (priority 2020, published 2023).
Several values for one entry are separate records, joined by “and”; a condition that tells them apart may be missing. Identical values can stand only once.

Experiments:
(RT-)PCR reaction = experiment: (RT-)PCR compatibility of test substance, reaction as a whole; assay type: biochemical
[1] = system: reverse transcriptase (RT); experiment: (RT-)qPCR with test substance added, RT reaction (IC RNA template); assay type: biochemical; conditions: for maximal non-inhibiting concentration, RT reaction: final concentration in (RT-)PCR, QuantiNova Pathogen Mix, 40 cycles, compared to water control (Examples 1, 2)
Taq polymerase = target: T1, Taq polymerase (Thermus aquaticus, UniProt P19821); experiment: (RT-)qPCR with test substance added, DNA template; assay type: biochemical; conditions: for maximal non-inhibiting concentration, Taq polymerase: final concentration in (RT-)PCR, QuantiNova Pathogen Mix, 40 cycles, compared to water control (Examples 1, 2)
T1 construct: purchased QIAGEN (QuantiNova Pathogen + IC Kit; QIAprep& Viral RNA UM Kit)

[2] = system: in vitro transcribed SARS-CoV-2 genes N1 and N2; assay type: biochemical
[3] = system: N1 and N2 genes of SARS-CoV-2; assay type: biochemical
DNA and/or RNA viruses = experiment: Virucidal suspension tests, summary statement; assay type: cell-based; conditions: summary of the examples; against DNA and/or RNA viruses
Bovine coronavirus = experiment: Virucidal activity test according to DIN EN 14476:2019-10, Bovine coronavirus; assay type: cell-based, Bovine coronavirus (Betacoronavirus 1); conditions: for inactivation of Bovine coronavirus (in words): at the tested concentrations (Example 4); for Log10 reduction factor(s) incl. 95% confidence interval(s) against Bovine coronavirus: conc. 1% (DDAC 0.015%, Braunol povidone iodine 0.05%), initial results
Procedure: Analysis was performed by Henkel (Dusseldorf) according to the European norm DIN EN 14476:2019-10.
The following test for virucidal activity of the different test substances were performed by Henkel (Dusseldorf) according to the European norm DIN EN 14476:2019-10. The experimental conditions were identical to those in Example 3 but with a Bovine coronavirus instead of Vaccinia virus.

[4] = system: Vaccinia Virus, Elstree strain, ATCC VR1549; assay type: cell-based
[5] = Example 6, FIG. 6A, Tween20 at very high concentrations, Tween60 and Brij58 at much lower concentrations
[6] = Example 7, FIG. 7, without Tween20
[7] = Example 8, FIG. 8, substance alone, increasing concentrations, QIAprep&amp reaction mix without Extraction Buffer step

T1 sequence (P19821 whole entry): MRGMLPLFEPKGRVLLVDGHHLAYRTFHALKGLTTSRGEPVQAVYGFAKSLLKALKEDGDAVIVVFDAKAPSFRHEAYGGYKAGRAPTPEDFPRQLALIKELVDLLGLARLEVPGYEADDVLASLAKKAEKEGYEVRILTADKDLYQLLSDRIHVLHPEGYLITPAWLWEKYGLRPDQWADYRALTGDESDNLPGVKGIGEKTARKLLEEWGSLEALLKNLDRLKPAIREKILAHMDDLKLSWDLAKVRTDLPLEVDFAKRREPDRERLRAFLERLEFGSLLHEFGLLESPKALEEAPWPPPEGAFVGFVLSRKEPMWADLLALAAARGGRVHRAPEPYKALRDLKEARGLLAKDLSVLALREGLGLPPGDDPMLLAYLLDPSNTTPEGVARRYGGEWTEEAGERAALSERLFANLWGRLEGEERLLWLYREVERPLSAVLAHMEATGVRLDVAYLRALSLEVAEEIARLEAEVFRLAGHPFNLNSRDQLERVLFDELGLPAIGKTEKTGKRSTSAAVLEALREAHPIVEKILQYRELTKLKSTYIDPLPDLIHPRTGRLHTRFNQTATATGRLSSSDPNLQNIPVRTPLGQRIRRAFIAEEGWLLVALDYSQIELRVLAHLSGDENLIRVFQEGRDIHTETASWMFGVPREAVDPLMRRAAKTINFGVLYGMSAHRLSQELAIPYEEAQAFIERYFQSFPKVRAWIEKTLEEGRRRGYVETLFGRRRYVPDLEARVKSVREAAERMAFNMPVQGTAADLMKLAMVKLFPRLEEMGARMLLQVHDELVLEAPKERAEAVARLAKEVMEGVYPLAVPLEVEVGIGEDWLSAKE

polyoxyethylene (20) sorbitan monostearate [Tween60]
inhibition of the (RT-)PCR (in words) ((RT-)PCR reaction; [5]): no PCR inhibition at all

CCCCCCCCCCCCOS(=O)(=O)[O-].[Na+] [SDS, Sodium dodecyl sulfate]
concentration from which Ct-values increase, reverse transcriptase [1, 6]: ≥ 0.03125%
inhibition of the (RT-)PCR (in words) ((RT-)PCR reaction; [7]): significant inhibition
concentration from which Ct-values increase, Taq polymerase (Taq polymerase; [6]): ≥ 0.125%

CCCCCCCCCCCC[N+](C)(C)[O-] [LDAO, Lauryldimethylamin-N-oxide (N,N-Dimethyldodecylamine N-oxide)]
inhibition of the RT reaction (in words) ([1]; LDAO at 0.035%, Ecosurf EH-9 at all tested concentrations (0.035-0.7%), compared to water control): slight but acceptable inhibition
maximal non-inhibiting concentration, RT reaction [1]: 0.035%
maximal non-inhibiting concentration, Taq polymerase (Taq polymerase): 0.035%

O=C(O)CCP(CCC(=O)O)CCC(=O)O [TCEP, Tris-(2-carboxyethyl)-phosphin]
concentration at which Ct-values increase again [2]: ≥ 2 mM
concentration that neutralizes the inhibitory effect of 0.5% povidone iodine in RT-PCR [2]: 5 mM
decrease of the Ct-value [2]: about 2

polyoxyethylene(20) cetyl ether [Brij58]
inhibition of the (RT-)PCR (in words) ((RT-)PCR reaction; [5]): no PCR inhibition at all

CCCCCCCCCC[N+](C)(C)CCCCCCCCCC.[Cl-] [DDAC, Didecyldimethylammonium chloride]
inhibition of the (RT-)PCR by substance in transport/storage medium (in words) [3]: no inhibition
maximal non-inhibiting concentration, RT reaction [1]: ≤ 0.005%
reduction of the virus titer (DNA and/or RNA viruses): about 4 log10
inhibition of the (RT-)PCR (in words) ((RT-)PCR reaction; [7]): significant inhibition
inactivation of Bovine coronavirus (in words) (Bovine coronavirus): effectively inactivated
Log10 reduction factor(s) incl. 95% confidence interval(s) against Bovine coronavirus (Bovine coronavirus; contact time 15 min): >5.13 ± 0.25 Log10
Log10 reduction factor(s) incl. 95% confidence interval(s) against Bovine coronavirus (Bovine coronavirus; contact time 60 min): >4.88 ± 0.25 Log10
reduction of the virus titer [4]: 4 log10 grades
virucidal activity against Vaccinia virus (in words) [4]: strong virucidal activity
maximal non-inhibiting concentration, Taq polymerase (Taq polymerase): ≤ 0.005%

CCCCCCCCCCCC(=O)OCCOCCOCCOCCOCCOCCOCCOCCOCCOCCOCCOCCOCCOCCOCCOCCOCCOCCOCCOCCOCC(OCCOCCOCCOCCOCCOCCOCCOCCOCCOCCOCCOCCOCCOCCOCCOCCOCCOCCOCCOCCO)C1OCC(OCCOCCOCCOCCOCCOCCOCCOCCOCCOCCOCCOCCOCCOCCOCCOCCOCCOCCOCCOCCO)C1OCCOCCOCCOCCOCCOCCOCCOCCOCCOCCOCCOCCOCCOCCOCCOCCOCCOCCOCCOCCO (centres unmarked) [Tween20, polyoxyethylene (20) sorbitan monolaurate]
counteracting effect on SDS inhibition of the reverse transcription (in words) ([1]; 3% and 5% Tween20 in the PCR, depending on the Tween20 concentration): significantly reduced
maximal non-inhibiting concentration, RT reaction [1]: ≤ 0.35%
enzyme inhibition in (RT-)PCR (in words) ((RT-)PCR reaction; 0.7% final concentration in (RT-)PCR): some inhibition
inhibition of the (RT-)PCR (in words) ((RT-)PCR reaction; [5]): only a moderate inhibition
log10 reduction factor(s) incl. 95% confidence interval(s) against Vaccinia Virus, Elstree strain, ATCC VR1549, with clean conditions [4]: 2.00 ± 0.54 log10 and 1.88 ± 0.41 log10
virucidal activity against Vaccinia virus (in words) [4]: least reduction of the virus titer
counteracting effect on SDS inhibition of the Taq polymerase (in words) (Taq polymerase; 3% and 5% Tween20 in the PCR, even at the highest concentrations of SDS tested): reactivates the activity
maximal non-inhibiting concentration, Taq polymerase (Taq polymerase): ≤ 0.35%

povidone iodine
inhibition of the (RT-)PCR (in words) [2]: significant inhibition
maximal non-inhibiting concentration, RT reaction [1]: ≤ 0.0175%
reduction of the virus titer (DNA and/or RNA viruses): about 4 log10
inactivation of Bovine coronavirus (in words) (Bovine coronavirus): effectively inactivated
Log10 reduction factor(s) incl. 95% confidence interval(s) against Bovine coronavirus (Bovine coronavirus; contact time 15 min): >6.13 ± 0.25 Log10
Log10 reduction factor(s) incl. 95% confidence interval(s) against Bovine coronavirus (Bovine coronavirus; contact time 60 min): >5.88 ± 0.25 Log10
reduction of the virus titer [4]: 4 log10 grades
virucidal activity against Vaccinia virus (in words) [4]: strong virucidal activity
maximal non-inhibiting concentration, Taq polymerase (Taq polymerase): ≤ 0.0175%
